Measurements as given in US8357379B2, “High concentration baclofen preparations” (Board of Regents, The University of Texas System, priority 2004, dated 2013).
Marks after values point to notes of the source that are not given here.

Columns and labels:
[1] = Physical stability evaluation (visual inspection, Tyndall beam, turbidity, particle counting) of stored baclofen solutions; type: physicochemical; conditions: for time remained clear and free of unacceptable microparticulates: room temperature or 37° C.
Procedure: Methods of Sample Preparation. All manipulations are conducted in a Class 100 environment in a biological safety cabinet. Each test solution is prepared as a pooled sample and then subdivided by (1) drawing 20 mL of the solution into 30-mL Becton-Dickinson syringes having Braun Luer lock “Red Cap” syringe tip seals and (2) sealing the Luer tip with a Red Cap Luer tip seal and (3) filling 20 mL of the test solution into 30-mL sterile empty glass vials. Separate sample syringes and sample vials are prepared for each drug concentration at each storage temperature. Separate syringes and vials are prepared for analysis of the drug content. Further syringes and vials are used to evaluate the physical stability of the solutions.
Methods of Sampling and Analysis. Each pooled solution is analyzed and evaluated immediately after preparation. This serves as the initial time point evaluation for the test solution. The solution is then packaged into the syringes and vials as noted under Sample Preparation.
(§1) The test solutions in vials and syringes are thoroughly mixed prior to sampling. A 1-mL sample of each test solution from three test syringes and three test vials is collected and chemically analyzed. The sample aliquots are removed from each container after 1, 3, 7, 14, 21, 30 and 60 days of storage at 4° C., 23° C., and 37° C. Triplicate HPLC determinations are performed at each time point if needed to determine the maximum stability of baclofen. The contents of the remaining containers are visually inspected at each assay time point and 6-mL samples are collected and fully evaluated for physical stability as indicated under Physical Stability Evaluation above after 1, 3, 7, 14, 21, 30 and 60 days.
After complete dissolution of the samples had occurred, the solutions were allowed to cool to room temperature and several separate aliquots of each sample were filtered through 0.22-micron sterilizing filters into sterile empty vials. Vials containing samples of each solution were stored under one of three test conditions: vials were stored at room temperature or under refrigeration (to simulate normal storage conditions), or at 37° C. (to simulate “in use” conditions in an implanted pump).
Physical Stability Evaluation. The samples are also evaluated for changes in turbidity and particulate formation. In addition to visual inspection in normal diffuse fluorescent room light and using a high-intensity monodirectional light source (Tyndall beam) against a dark background, turbidity is measured using a Hach Company model 2100AN color-correcting turbidimeter, and particle sizing/counting is performed using a light-obscuration particle sizer and counter (HIAC-Royco Model 9703 particle sizer/counter).

[2] = Stability-indicating HPLC analysis of baclofen concentration / chemical stability; type: physicochemical; conditions: for Chemical Stability (% Remaining): room temperature
Procedure: as §1, with “The sample aliquots are removed from each container after 1, 3, 7, 14, 21, 30 and 60 days of storage at 4° C., 23° C., and 37° C.” left out
HPLC Analysis to Confirm Baclofen Concentration. A stability-indicating HPLC analytical method adapted from published methods was used to determine the concentration of the baclofen samples evaluated in this testing (Sitaram et al., 1997; Gupta et al., 1998; Johnson C E, et al., 1993; Allen L V, et al., 1996. This method was used to document that at the higher concentrations the entire amount of baclofen had dissolved, and the solutions were near the target concentrations. All tested sample solutions were filtered through 0.22-micron filters to remove remaining undissolved drug, if any, prior to analysis. The HPLC analytical method used is cited in Tables 1 and 2. […] Initial baclofen concentrations for the nominally 4, 5, 6, and 8 mg/mL test solutions were within 93 to 104% of the target concentrations.
The liquid chromatograph is a Waters LC Module-1 Plus having a multisolvent pump, variable wavelength UV detector, and autosampler in one unit. The system is also controlled and integrated by a personal computer running chromatography management software.

[3] = cited from earlier work
[4] = Physical stability evaluation (visual inspection, Tyndall beam, turbidity, particle counting) of stored baclofen solutions; type: physicochemical; conditions: for Physical Stability (yes/no) / visual inspection at approximately 16 months: heat and sonication; for physical stability at twelve months: 12 months

Which “time stayed in solution, clear and free of visible particulates and unacceptable microparticulates” value ([1]; 4 mg/mL, Examples 1 and 2, 37° C. (maximum duration tested)) does the source give for `NCC(CC(=O)O)c1ccc(Cl)cc1` (centres unmarked) [Baclofen, 4-amino-3-(p-chlorophenyl) butyric acid] here?
The value was “at least one”.

What about the “time remained clear and free of unacceptable microparticulates” value ([1]; 4 mg/mL, prepared by pH adjustment (Examples 3 and 4)) of the same molecule?
The value was “at least 60 days”.

What about the “time remained clear and free of unacceptable microparticulates” value ([1]; 5 mg/mL, all four methods (Examples 1-4)) of the same molecule?
The value was “at least 60 days”.

And the “time after which a precipitate developed” value ([1]; 6 mg/mL, refrigeration)?
Its value is 7 days.

And the “time remained in solution clear and free of unacceptable microparticulates” value ([1]; 8 mg/mL, acidification and back titration to pH 5 (Example 3), room temperature)?
The value was “at least 30 days”.

What about the “time remains in solution clear and free of unacceptable microparticulates” value ([1]; 8 mg/mL, alkalinization and back titration (Example 4), room temperature) of the same molecule?
Its value is “at least 30 days”.

And the “Chemical Stability (% Remaining)” value ([2]; 3 mg/ml, 24 months, calculated based on concentrations measured at six months)?
The value was 101.7 ± 1.0^a % Remaining.

What about the “Chemical Stability (% Remaining)” value ([2]; 3.5 mg/ml, 24 months, calculated based on concentrations measured at six months) of the same molecule?
Its value is 100.0 ± 0.4^a % Remaining.

And the “loss of drug during storage” value ([2]; 4 mg/mL, Examples 1 and 2, at least one year at 23° C.)?
The value was “no loss of drug”.

What about the “Chemical Stability (% Remaining)” value ([2]; 4 mg/ml, 12 months) of the same molecule?
The value was 99.9 ± 0.5 % Remaining.

What about the “Chemical Stability (% Remaining)” value ([2]; 4 mg/ml, 24 months, calculated based on concentrations measured at six months) of the same molecule?
Its value is 99.5 ± 1.2^a % Remaining.

What about the “Chemical Stability (% Remaining)” value ([2]; 5 mg/ml, 12 months) of the same molecule?
Its value is 100.6 ± 0.5 % Remaining.

What about the “Chemical Stability (% Remaining)” value ([2]; 6 mg/ml, 12 months) of the same molecule?
Its value is 102.9 ± 1.0 % Remaining.

And the “initial baclofen concentration relative to target concentration” value ([2]; nominally 4, 5, 6, and 8 mg/mL test solutions, filtered 0.22-micron, HPLC)?
Its value is 93 to 104%.

What about the “concentration obtained by dissolving in acid” value ([3]; aqueous 0.1N HCl (Ahuja 1985)) of the same molecule?
The value was “greater than 20 mg/ml”.

And the “concentration obtained by dissolving in base” value ([3]; aqueous 0.1N NaOH (Ahuja 1985))?
Its value is “greater than 20 mg/ml”.

And the solubility in chloroform ([3]; chloroform)?
Its solubility in chloroform is “insoluble”.

What about the solubility in methanol ([3]; methanol) of the same molecule?
Its solubility in methanol is “very slightly soluble”.

What about the “upper limit on room temperature aqueous solubility” value ([3]; room temperature, equilibrium reached over weeks or months (Ahuja, 1985)) of the same molecule?
The value was 4300 µg/mL.

And the solubility in water ([3]; water)?
Its solubility in water is “slightly soluble”.

And the “Physical Stability (yes/no)” value ([4]; 3 mg/ml, room temperature, test period 24 months)?
Its value is “yes”.

What about the “Physical Stability (yes/no)” value ([4]; 3.5 mg/ml, room temperature, test period 24 months) of the same molecule?
The value was “yes”.

And the “time remained in solution” value ([4]; 4 mg/mL, Examples 1 and 2, refrigerated at 4° C. (maximum duration tested))?
Its value is “at least 60 days”.

And the “time remained in solution, clear and free of visible particulates and microparticulate precipitation” value ([4]; 4 mg/mL, Examples 1 and 2, room temperature of 23° C.)?
Its value is “at least one”.

And the “time stayed in solution, clear and free of visible particulates and unacceptable microparticulates” value ([4]; 4 mg/mL, heat and sonication (Example 1) or heat and high speed stirring (Example 2), room temperature)?
Its value is “over 12 months”.

And the “Physical Stability (yes/no)” value ([4]; 4 mg/ml, room temperature, test period 12 months)?
The value was “yes”.

What about the “Physical Stability (yes/no)” value ([4]; 4 mg/ml, room temperature, test period 24 months) of the same molecule?
The value was “yes”.

And the “time after which a precipitate developed” value ([4]; 5 mg/mL, refrigeration)?
The value was 14 days.

What about the “Physical Stability (yes/no)” value ([4]; 5 mg/ml, room temperature, test period 12 months) of the same molecule?
Its value is “yes”.

And the “time remained clear and free of unacceptable microparticulates” value ([4]; 6 mg/mL, all four methods (Examples 1-4), room temperature or 37° C.)?
The value was “at least 60 days”.

What about the “physical stability at twelve months” value ([4]; 6.0 mg/mL, heat and sonication (Example 1), room temperature) of the same molecule?
Its value is “no visible particulates to the unaided eye, but did contain trace amounts of solid material”.

And the “visual inspection at approximately 16 months” value ([4]; 6.0 mg/mL, room temperature)?
The value was “no change in its condition”.

What about the “Physical Stability (yes/no)” value ([4]; 6 mg/ml, room temperature, test period 12 months, no visible particulates to the unaided eye, trace microparticulates in a few vials) of the same molecule?
The value was “yes^b”.

And the “time remained in solution” value ([4]; 8.0 mg/mL, heat and sonication (Example 1), room temperature)?
The value was “at least 30 days”.

And the “time remained clear and free of unacceptable microparticulates before trace particulate precipitation” value ([4]; 8 mg/mL, heating and agitation (Examples 1 and 2), room temperature or 37° C.)?
Its value is 14 days.

And the “physical stability at 24 months” value ([4]; 3.0, 3.5 and 4.0 mg/mL, heat and sonication (Example 1), room temperature, 24 months, four methods of Example 11)?
The value was “physically stable by all four methods”.

And the “physical stability at twelve months” value ([4]; 4.0 and 5.0 mg/mL, heat and sonication (Example 1), room temperature)?
The value was “remained clear and no particulates were detected”.

What about the “visual inspection at approximately 16 months” value ([4]; 4.0 and 5.0 mg/mL, room temperature) of the same molecule?
The value was “no change in the solutions”.
